Test results taken from PMC6042085 (Proceedings of the National Academy of Sciences of the …, 2018).

Molecular target: T1, PriSLX (Saccharolobus solfataricus, UniProt Q97Z83+Q97ZS7)
T1 sequence (Q97Z83 1-330): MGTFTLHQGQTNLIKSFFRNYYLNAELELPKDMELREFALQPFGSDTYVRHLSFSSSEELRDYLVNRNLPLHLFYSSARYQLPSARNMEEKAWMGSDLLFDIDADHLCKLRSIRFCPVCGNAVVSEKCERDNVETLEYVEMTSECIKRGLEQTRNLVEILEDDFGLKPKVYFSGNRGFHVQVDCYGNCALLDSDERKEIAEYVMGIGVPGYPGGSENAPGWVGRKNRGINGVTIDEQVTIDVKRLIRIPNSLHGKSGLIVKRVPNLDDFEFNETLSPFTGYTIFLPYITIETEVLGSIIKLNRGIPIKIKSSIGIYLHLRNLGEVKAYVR
T1 sequence (Q97ZS7 1-154): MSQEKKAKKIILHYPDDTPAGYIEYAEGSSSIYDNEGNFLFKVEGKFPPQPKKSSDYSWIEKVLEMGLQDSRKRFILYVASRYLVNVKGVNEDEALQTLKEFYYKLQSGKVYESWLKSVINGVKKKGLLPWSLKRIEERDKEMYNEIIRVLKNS
T1 sequence (Q9UWW1 1-307 partner): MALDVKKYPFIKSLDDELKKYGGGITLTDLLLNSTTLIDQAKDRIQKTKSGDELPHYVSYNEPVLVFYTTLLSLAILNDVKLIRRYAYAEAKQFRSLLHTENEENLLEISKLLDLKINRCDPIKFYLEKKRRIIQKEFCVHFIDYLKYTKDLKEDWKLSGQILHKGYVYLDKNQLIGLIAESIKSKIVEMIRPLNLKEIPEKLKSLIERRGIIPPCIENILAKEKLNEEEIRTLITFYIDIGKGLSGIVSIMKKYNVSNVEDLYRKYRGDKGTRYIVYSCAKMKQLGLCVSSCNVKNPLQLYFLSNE
Assay: primer synthesis, […]-labelled nucleotide, gel
Assay type: biochemical
Details: poly(dT) template; pH 6.0, 10 mM MnCl2, 10 µM ZnCl2, 75 °C

Nc1ncnc2c1ncn2[C@H]1C[C@H](O)[C@@H](COP(=O)(O)OP(=O)(O)OP(=O)(O)O)O1 [dATP]
primer synthesis, 32P-labelled nucleotide, gel: reactions with solely dATP as substrate primarily generate a lower yield
